According to patent US20110178094A1, “Oral Formulation” (H. LUNDBECK A/S, priority 2008, published 2011):

Columns and labels:
[1] = tested on: condition avoidance response (CAR) model; experiment: Condition avoidance response (CAR) model; format: in vivo; settings: rats; at very low levels of D2 receptor occupancy
Excerpt: The compound of formula I is a putative antipsychotic compound with affinity for both dopamine D1 and D2 receptors.

[2] = tested on: preclinical models of cognitive dysfunctions; experiment: Preclinical models of cognitive dysfunctions; format: in vivo
Excerpt: It is believed that the 5-HT6 receptor affinity of the compound of formula I is involved in the precognitive effects of the compound. Furthermore, it is believed that such pro-cognitive effect of the compound of formula I will be evident at a low level of D2 receptor occupancy, which is beneficial in terms of the side-effect profile.

[3] = Study of the compatibility of the excipients and the compound; format: physicochemical; settings: components used in the tablet formulation
Excerpt: Based on this, a traditional wet granulation, tabletting and film-coating process was developed using standard methods and excipients.

dopamine D1 receptors = dopamine D1 receptors (Homo sapiens, UniProt P21728); settings: reported in WO 2005/016900; cited from earlier work
Chain of dopamine D1 receptors (P21728 whole entry): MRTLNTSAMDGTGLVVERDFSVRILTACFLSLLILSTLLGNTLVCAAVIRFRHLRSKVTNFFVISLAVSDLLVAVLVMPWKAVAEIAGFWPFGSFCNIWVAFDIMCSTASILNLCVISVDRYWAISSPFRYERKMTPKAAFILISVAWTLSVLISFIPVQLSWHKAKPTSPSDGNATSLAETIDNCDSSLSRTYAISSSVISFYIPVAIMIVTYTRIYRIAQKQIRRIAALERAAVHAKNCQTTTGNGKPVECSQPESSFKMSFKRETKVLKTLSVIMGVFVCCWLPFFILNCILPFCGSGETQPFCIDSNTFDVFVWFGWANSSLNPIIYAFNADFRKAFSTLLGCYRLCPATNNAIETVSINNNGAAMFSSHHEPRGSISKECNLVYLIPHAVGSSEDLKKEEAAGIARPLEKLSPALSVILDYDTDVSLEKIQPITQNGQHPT

dopamine D2 receptors = dopamine D2 receptors (Homo sapiens, UniProt P14416); settings: reported in WO 2005/016900; cited from earlier work
Chain of dopamine D2 receptors (P14416 whole entry): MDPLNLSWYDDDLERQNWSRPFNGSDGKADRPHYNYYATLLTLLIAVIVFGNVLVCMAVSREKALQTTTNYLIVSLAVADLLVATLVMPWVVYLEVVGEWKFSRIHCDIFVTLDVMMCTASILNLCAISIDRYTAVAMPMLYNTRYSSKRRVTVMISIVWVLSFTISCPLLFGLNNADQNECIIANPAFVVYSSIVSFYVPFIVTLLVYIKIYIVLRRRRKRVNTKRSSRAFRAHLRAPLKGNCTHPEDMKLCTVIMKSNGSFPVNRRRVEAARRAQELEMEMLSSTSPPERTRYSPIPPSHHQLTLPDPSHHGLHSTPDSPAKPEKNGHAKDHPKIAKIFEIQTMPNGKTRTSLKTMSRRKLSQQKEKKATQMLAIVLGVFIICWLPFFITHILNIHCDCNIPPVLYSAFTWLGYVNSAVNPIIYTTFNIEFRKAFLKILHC

5-HT2 receptor = settings: reported in WO 2005/016900; cited from earlier work
α1 adrenoceptors = settings: reported in WO 2005/016900; cited from earlier work

CN1CCN([C@@H]2C[C@@H](c3ccccc3)c3ccc(Cl)cc32)CC1(C)C [compound of formula I, 4-((1R,3S)-6-chloro-3-phenylindan-1-yl)-1,2,2-trimethylpiperazine]
antipsychotic activity in CAR model [1]: possesses antipsychotic activity
cognition enhancing properties [2]: cognition enhancing properties
compatibility of the tablet excipients with the compound [3]: compatible
affinity for dopamine D1 receptors (antagonist) (dopamine D1 receptors): high affinity
affinity for dopamine D2 receptors (antagonist) (dopamine D2 receptors): high affinity
affinity for the 5-HT2 receptor (antagonist) (5-HT2 receptor): high affinity
affinity for α1 adrenoceptors (α1 adrenoceptors): high affinity
